Assay results taken from patent US20250154169A1, “COMPOUNDS AND METHODS FOR MODULATING SPLICING” (REMIX THERAPEUTICS INC., priority 2021, published 2025).
Where two headings read alike, the source gives them in different places.

Key:
Assay type in all cases: cell-based, human
SMN2 mRNA = assay: Splicing RT-qPCR gene panel, SMN2 canonical junction (CJ) mRNA; conditions: Homo sapiens, Tables 4A/4B, read-out: SMN2 (IC50, decrease in CJ mRNA, gene panel)
Method in brief: (§1)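 A673/K562, 24 h cpd, 11-pt 3-fold from 10 uM, DMSO ≤0.25%. Lysis, direct RT-qPCR of CJ isoform, ≥duplicate. GAPDH/GUSB/PPIA norm, ΔΔCt vs DMSO → RQ → % response.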

HTT mRNA [1] = assay: Splicing RT-qPCR gene panel, HTT canonical junction (CJ) mRNA; conditions: Homo sapiens, Tables 4A/4B, read-out: HTT (IC50, decrease in CJ mRNA, gene panel)
Method in brief: as §1

Target C mRNA = assay: Splicing RT-qPCR gene panel, Target C canonical junction (CJ) mRNA; conditions: Homo sapiens, Tables 4A/4B, read-out: Target C (IC50, decrease in CJ mRNA, gene panel)
Method in brief: as §1

MYB mRNA = assay: Splicing RT-qPCR assay, MYB canonical (CJ) and alternative (AJ) junction mRNA; conditions: Homo sapiens; for AC50: read-out: MYB AJ (AC50, increase in alternative junction mRNA)
Method in brief: (§2)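 Canonical (CJ) and alternative-exon (AJ) junction mRNAs quantified by one-step RT-qPCR in cell lysates, normalized to housekeeping PPIA for A673 and GAPDH or GUSB for K562. Cells were exposed 24 h at 37 °C to 11-point 3-fold compound series from 10 uM final, with DMSO at or below 0.25%.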

HTT mRNA [2] = assay: Splicing RT-qPCR assay, HTT canonical (CJ) and alternative (AJ) junction mRNA; conditions: Homo sapiens, A673 or K562 cells, 24 hours compound treatment; for IC50: 24 h, read-out: HTT CJ (IC50, decrease in canonical junction mRNA); for AC50: read-out: HTT AJ (AC50, increase in alternative junction mRNA)
Method in brief: as §2

[3] = 24 h, A673 or K562 cells, 24 hours compound treatment, RT-qPCR
[4] = 24 h, A673 or K562 cells, 24 hours compound treatment, RT-qPCR, read-out: MYB CJ (IC50, decrease in canonical junction mRNA)
[5] = Tables 4A/4B, canonical junction qPCR panel, read-out: MYB (IC50, decrease in CJ mRNA, gene panel)

IC50 (SMN2 mRNA) [µM] | IC50 (HTT mRNA [1]) [µM] | IC50 (Target C mRNA) [µM] | IC50 (MYB mRNA; [4]) [µM] | IC50 (MYB mRNA; [5]) [µM] | IC50 (HTT mRNA [2]) [µM] | SMILES | AC50 (MYB mRNA; [3]) [µM] | AC50 (HTT mRNA [2]) [µM]
1 to 10 | > 10 | > 10 | > 10 | > 10 | > 10 | C=C(C)n1ncc2c(N3CCNCC3)ccc(C(=O)Nc3cc(F)c4nc(C)cn4c3)c21 [Compound 416, N-(8-fluoro-2-methylimidazo[1,2-a]pyridin-6-yl)-4-(piperazin-1-yl)-1-(prop-1-en-2-yl)-1H-indazole-7-carboxamide] | > 10 | > 10
< 0.1 | 0.1 to 1 | 1 to 10 | < 0.1 | < 0.1 | 0.1 to 1 | CCn1cc2c(N3CCC(C)(NC)CC3)ccc(C(=O)Nc3cc(F)c4nc(C)cn4c3)c2n1 [Compound 423, 2-ethyl-N-{8-fluoro-2-methylimidazo[1,2-a]pyridin-6-yl}-4-[4-methyl-4-(methylamino)piperidin-1-yl]indazole-7-carboxamide] | < 0.1 | 0.1 to 1
1 to 10 | > 10 | > 10 | > 10 | > 10 | > 10 | COC1CC(n2cc3c(N4CCNCC4)ccc(C(=O)Nc4cc(F)c5nc(C)cn5c4)c3n2)C1 (centres unmarked) [Compound 424] | > 10 | > 10
< 0.1 | 0.1 to 1 | 1 to 10 | 0.1 to 1 | 0.1 to 1 | 0.1 to 1 | Cc1cn2cc(NC(=O)c3ccc(N4CCNCC4)c4nn(C)nc34)cc(F)c2n1 [Compound 427, N-{8-fluoro-2-methylimidazo[1,2-a]pyridin-6-yl}-2-methyl-7-(piperazin-1-yl)-1,2,3-benzotriazole-4-carboxamide] | 0.1 to 1 | 0.1 to 1
< 0.1 | < 0.1 | 0.1 to 1 | < 0.1 | < 0.1 | < 0.1 | COc1c(NC(=O)c2ccc(N3CCNCC3)c3oc(C)nc23)cn2cc(C)nc2c1F [Compound 428, N-{8-fluoro-7-methoxy-2-methylimidazo[1,2-a]pyridin-6-yl}-2-methyl-7-(piperazin-1-yl)-1,3-benzoxazole-4-carboxamide] | < 0.1 | < 0.1
< 0.1 | 1 to 10 | > 10 | 0.1 to 1 | 0.1 to 1 | 1 to 10 | CCn1cc2c(N3CCN[C@@H](CO)C3)ccc(C(=O)Nc3cc(F)c4nc(C)cn4c3)c2n1 [Compound 429, (R)-2-ethyl-N-(8-fluoro-2-methylimidazo[1,2-a]pyridin-6-yl)-4-(3-(hydroxymethyl)piperazin-1-yl)-2H-indazole-7-carboxamide] | 0.1 to 1 | 1 to 10
< 0.1 | 1 to 10 | > 10 | < 0.1 | < 0.1 | 1 to 10 | CCn1cc2c(N3CCN[C@H](CO)C3)ccc(C(=O)Nc3cc(F)c4nc(C)cn4c3)c2n1 [Compound 430, (S)-2-ethyl-N-(8-fluoro-2-methylimidazo[1,2-a]pyridin-6-yl)-4-(3-(hydroxymethyl)piperazin-1-yl)-2H-indazole-7-carboxamide] | < 0.1 | 1 to 10
< 0.1 | 1 to 10 | 1 to 10 | > 10 | 0.1 to 1 | > 10 | Cc1cn2cc(NC(=O)c3ccc(N4CCNCC4)c4nnn(C)c34)cc(F)c2n1 [Compound 435, N-{8-fluoro-2-methylimidazo[1,2-a]pyridin-6-yl}-3-methyl-7-(piperazin-1-yl)-1,2,3-benzotriazole-4-carboxamide] | > 10 | > 10
> 10 | > 10 | > 10 | 0.1 to 1 | > 10 | > 10 | Cc1cn2cc(NC(=O)c3ccc(N4CCNCC4)c4c3nnn4C)cc(F)c2n1 [Compound 436, N-{8-fluoro-2-methylimidazo[1,2-a]pyridin-6-yl}-1-methyl-7-(piperazin-1-yl)-1,2,3-benzotriazole-4-carboxamide] | 0.1 to 1 | > 10

More lines, now with the values behind:

SMILES | IC50 (SMN2 mRNA) [µM] | IC50 (HTT mRNA [1]) [µM] | IC50 (Target C mRNA) [µM] | IC50 (MYB mRNA; [4]) [µM] | IC50 (MYB mRNA; [5]) [µM] | IC50 (HTT mRNA [2]) [µM] | AC50 (MYB mRNA; [3]) [µM] | AC50 (HTT mRNA [2]) [µM]
CNC1CCN(c2ccc(C(=O)Nc3cn4cc(C)nc4c(OC)n3)c3nn(C)cc23)C1 (centres unmarked) [Compound 417] | < 0.1 | > 10 | > 10 | < 0.1 | < 0.1 | 1 to 10 | < 0.1 | > 10
CNC1CCN(c2ccc(C(=O)Nc3cn4cc(C)nc4c(OC)n3)c3nn(CCOC)cc23)C1 (centres unmarked) [Compound 418, N-{8-methoxy-2-methylimidazo[1,2-a]pyrazin-6-yl}-2-(2-methoxyethyl)-4-[3-(methylamino)pyrrolidin-1-yl]indazole-7-carboxamide] | < 0.1 | > 10 | > 10 | 0.1 to 1 | 0.1 to 1 | > 10 | 1 to 10 | > 10
CNC1CCN(c2ccc(C(=O)Nc3cn4cc(C)nc4c(N(C)C)n3)c3nn(C)cc23)C1 (centres unmarked) [Compound 419, N-[8-(dimethylamino)-2-methylimidazo[1,2-a]pyrazin-6-yl]-2-methyl-4-[3-(methylamino)pyrrolidin-1-yl]indazole-7-carboxamide] | > 10 | > 10 | > 10 | > 10 | > 10 | > 10 | > 10 | > 10
CCOc1nc(NC(=O)c2ccc(N3CCC(NC)C3)c3cn(C)nc23)cn2cc(C)nc12 (centres unmarked) [Compound 420, N-{8-ethoxy-2-methylimidazo[1,2-a]pyrazin-6-yl}-2-methyl-4-[3-(methylamino)pyrrolidin-1-yl]indazole-7-carboxamide] | < 0.1 | > 10 | > 10 | 0.1 to 1 | 0.1 to 1 | > 10 | 0.1 to 1 | > 10
Cc1cc2nc(NC(=O)c3ccc(N4CCNCC4)c4cn(C)nc34)cc(C)n2n1 [Compound 421, N-{2,7-dimethylpyrazolo[1,5-a]pyrimidin-5-yl}-2-methyl-4-(piperazin-1-yl) indazole-7-carboxamide] | > 10 | > 10 | > 10 | > 10 | > 10 | > 10 | > 10 | > 10
CN[C@@H]1CCN(c2ccc(C(=O)Nc3cn4cc(C)nc4c(N(C)C)n3)c3nn(C)cc23)C1 [Compound 425] | > 10 | > 10 | > 10 | > 10 | > 10 | > 10 | > 10 | > 10
CN[C@H]1CCN(c2ccc(C(=O)Nc3cn4cc(C)nc4c(N(C)C)n3)c3nn(C)cc23)C1 [Compound 426] | > 10 | > 10 | > 10 | > 10 | > 10 | > 10 | > 10 | > 10
CN[C@@H]1CCN(c2ccc(C(=O)Nc3cn4cc(C)nc4c(OC)n3)c3nn(CCOC)cc23)C1 [Compound 431, (R)—N-(8-methoxy-2-methylimidazo[1,2-a]pyrazin-6-yl)-2-(2-methoxyethyl)-4-(3-(methylamino)pyrrolidin-1-yl)-2H-indazole-7-carboxamide] | < 0.1 | 1 to 10 | 1 to 10 | 0.1 to 1 | < 0.1 | > 10 | 0.1 to 1 | > 10
CN[C@H]1CCN(c2ccc(C(=O)Nc3cn4cc(C)nc4c(OC)n3)c3nn(CCOC)cc23)C1 [Compound 432, (S)—N-(8-methoxy-2-methylimidazo[1,2-a]pyrazin-6-yl)-2-(2-methoxyethyl)-4-(3-(methylamino)pyrrolidin-1-yl)-2H-indazole-7-carboxamide] | < 0.1 | > 10 | > 10 | < 0.1 | 0.1 to 1 | > 10 | < 0.1 | > 10
CCOc1nc(NC(=O)c2ccc(N3CC[C@H](NC)C3)c3cn(C)nc23)cn2cc(C)nc12 [Compound 434] | < 0.1 | > 10 | > 10 | 0.1 to 1 | < 0.1 | 1 to 10 | 1 to 10 | 1 to 10
